Compound	melting point [°C]
CCOC(Cc1ccc(OCCCc2nc(CC)oc2C)c2ccccc12)C(=O)O (racemic) [Example 65, [rac]-2-Ethoxy-3-{4-[3-(2-ethyl-5-methyl-oxazol-4-yl)-propoxy]-naphthalen-1-yl}-propionic acid]	113 to 117
CCOC(Cc1ccc(OCCCc2nc(C(CC)CC)oc2C)c2ccsc12)C(=O)O (racemic) [Example 67, [rac]-2-Ethoxy-3-(4-{3-[2-(1-ethyl-propyl)-5-methyl-oxazol-4-yl]-propoxy}-benzo[b]thiophen-7-yl)-propionic acid]	54 to 56
CCO[C@@H](Cc1ccc(OCCc2nc(C(C)(C)C)oc2C)c2ccsc12)C(=O)O [Example 6, (S)-3-{4-[2-(2-tert-Butyl-5-methyl-oxazol-4-yl)-ethoxy]-benzo[b]thiophen-7-yl}-2-ethoxy-propionic acid]	155 to 156
CCOC(Cc1cc(C)c(OCCc2nc(C(C)(C)C)oc2C)c(C)c1)C(=O)O (stereo not drawn) [Example 16, 3-{4-[2-(2-tert-Butyl-5-methyl-oxazol-4-yl)-ethoxy]-3,5-dimethyl-phenyl}-2-ethoxy-propionic acid]	104 to 106
CCCOC(Cc1ccc(OCc2nc(C3CC3)oc2C)c2ccsc12)C(=O)O (stereo not drawn) [Example 41, 3-[4-(2-Cyclopropyl-5-methyl-oxazol-4-ylmethoxy)-benzo[b]thiophen-7-yl]-2-propoxy-propionic acid]	88 to 89
C=CCCO[C@@H](Cc1ccc(OCCc2nc(C(C)(C)C)oc2C)c2ccsc12)C(=O)O [Example 7, (S)-2-But-3-enyloxy-3-{4-[2-(2-tert-butyl-5-methyl-oxazol-4-yl)-ethoxy]-benzo[b]thiophen-7-yl}-propionic acid]	70 to 71
COC(Cc1cc(C)c(OCCc2nc(C(C)(C)C)oc2C)c(C)c1)C(=O)O (stereo not drawn) [Example 15, 3-{4-[2-(2-tert-Butyl-5-methyl-oxazol-4-yl)-ethoxy]-3,5-dimethyl-phenyl}-2-methoxy-propionic acid]	78 to 80
CCOC(Cc1ccc(OCCCc2nc(C(C)(C)C)oc2C)c2ccccc12)C(=O)O (racemic) [Example 56, [rac]-3-{4-[3-(2-tert-Butyl-5-methyl-oxazol-4-yl)-propoxy]-naphthalen-1-yl}-2-ethoxy-propionic acid]	138 to 140
COC(Cc1ccc(OCCc2nc(C(C)(C)C)oc2C)c2ccsc12)C(=O)O (stereo not drawn) [Example 10, 3-{4-[2-(2-tert-Butyl-5-methyl-oxazol-4-yl)-ethoxy]-benzo[b]thiophen-7-yl}-2-methoxy-propionic acid]	163 to 165
CCCOC(Cc1ccc(OCCc2nc(C3CCCCC3)oc2C)c2ccccc12)C(=O)O (stereo not drawn) [Example 28, 3-{4-[2-(2-Cyclohexyl-5-methyl-oxazol-4-yl)-ethoxy]-naphthalen-1-yl}-2-propoxy-propionic acid]	106 to 107
Cc1oc(C2CC2)nc1COc1ccc(CC(OC(C)C)C(=O)O)c2sccc12 (stereo not drawn) [Example 42, 3-[4-(2-Cyclopropyl-5-methyl-oxazol-4-ylmethoxy)-benzo[b]thiophen-7-yl]-2-isopropoxy-propionic acid]	71 to 72
CCCOC(Cc1ccc(OCCCc2nc(C(C)(C)C)oc2C)c2ccccc12)C(=O)O (racemic) [Example 57, [rac]-3-{4-[3-(2-tert-Butyl-5-methyl-oxazol-4-yl)-propoxy]-naphthalen-1-yl}-2-propoxy-propionic acid]	140 to 141
CCOC(Cc1ccc(OCc2nc(C(C)(C)C)oc2C)c2ccccc12)C(=O)O (stereo not drawn) [Example 22, 3-[4-(2-tert-Butyl-5-methyl-oxazol-4-ylmethoxy)-naphthalen-1-yl]-2-ethoxy-propionic acid]	185 to 186
CCOC(Cc1ccc(OCc2nc(C3CC3)oc2C)c2ccccc12)C(=O)O (stereo not drawn) [Example 38, 3-[4-(2-Cyclopropyl-5-methyl-oxazol-4-ylmethoxy)-naphthalen-1-yl]-2-ethoxy-propionic acid]	166 to 168
CCOC(Cc1ccc(OCCc2nc(C(CC)CC)oc2C)c2ccsc12)C(=O)O (racemic) [Example 68, [rac]-2-Ethoxy-3-(4-{2-[2-(1-ethyl-propyl)-5-methyl-oxazol-4-yl]-ethoxy}-benzo[b]thiophen-7-yl)-propionic acid]	120 to 121
Cc1oc(C2CC2)nc1COc1ccc(CC(OC(C)C)C(=O)O)c2ccccc12 (stereo not drawn) [Example 40, 3-[4-(2-Cyclopropyl-5-methyl-oxazol-4-ylmethoxy)-naphthalen-1-yl]-2-isopropoxy-propionic acid]	129 to 130
CCOC(Cc1ccc(OCc2nc(C(C)(C)C)oc2C)c2ccsc12)C(=O)O (stereo not drawn) [Example 19, 3-[4-(2-tert-Butyl-5-methyl-oxazol-4-ylmethoxy)-benzo[b]thiophen-7-yl]-2-ethoxy-propionic acid]	179 to 180
CCOC(Cc1ccc(OCCCc2nc(C(C)(C)C)oc2CC)c2ccsc12)C(=O)O (racemic) [Example 53, [rac]-3-{4-[3-(2-tert-Butyl-5-ethyl-oxazol-4-yl)-propoxy]-benzo[b]thiophen-7-yl}-2-ethoxy-propionic acid]	94 to 95
CCOC(Cc1ccc(OCc2nc(C3CC3)oc2C)c2ccsc12)C(=O)O (stereo not drawn) [Example 43, 3-[4-(2-Cyclopropyl-5-methyl-oxazol-4-ylmethoxy)-benzo[b]thiophen-7-yl]-2-ethoxy-propionic acid]	153 to 154
CCCOC(Cc1ccc(OCCc2nc(C(C)(C)C)oc2C)c2ccccc12)C(=O)O (stereo not drawn) [Example 14, 3-{4-[2-(2-tert-Butyl-5-methyl-oxazol-4-yl)-ethoxy]-naphthalen-1-yl}-2-propoxy-propionic acid]	135 to 137
CCCOC(Cc1ccc(OCc2nc(C(C)(C)C)oc2C)c2ccccc12)C(=O)O (stereo not drawn) [Example 24, 3-[4-(2-tert-Butyl-5-methyl-oxazol-4-ylmethoxy)-naphthalen-1-yl]-2-propoxy-propionic acid]	169 to 170
CCOC(Cc1ccc(OCCc2nc(CC)oc2C)c2ccsc12)C(=O)O (racemic) [Example 66, [rac]-2-Ethoxy-3-{4-[2-(2-ethyl-5-methyl-oxazol-4-yl)-ethoxy]-benzo[b]thiophen-7-yl}-propionic acid]	84 to 85
Cc1oc(C(C)(C)C)nc1CCCOc1ccc(CC(OC(C)C)C(=O)O)c2ccccc12 (racemic) [Example 55, [rac]-3-{4-[3-(2-tert-Butyl-5-methyl-oxazol-4-yl)-propoxy]-naphthalen-1-yl}-2-isopropoxy-propionic acid]	118 to 119
CCOC(Cc1ccc(OCCCc2nc(C(C)(C)C)oc2C)c2ccsc12)C(=O)O (racemic) [Example 54, [rac]-3-{4-[3-(2-tert-Butyl-5-methyl-oxazol-4-yl)-propoxy]-benzo[b]thiophen-7-yl}-2-ethoxy-propionic acid]	125 to 126
CCOC(Cc1ccc(OCCc2nc(C(C)(C)C)oc2C)c2ccsc12)C(=O)O (stereo not drawn) [Example 9, 3-{4-[2-(2-tert-Butyl-5-methyl-oxazol-4-yl)-ethoxy]-benzo[b]thiophen-7-yl}-2-ethoxy-propionic acid]	152 to 153
COC(Cc1ccc(OCCCc2nc(C(C)(C)C)oc2C)c2ccsc12)C(=O)O (racemic) [Example 58, [rac]-3-{4-[3-(2-tert-Butyl-5-methyl-oxazol-4-yl)-propoxy]-benzo[b]thiophen-7-yl}-2-methoxy-propionic acid]	110 to 113
CCOC(Cc1ccc(OCc2nc(C(C)(C)C)oc2C)c(C)c1)C(=O)O (stereo not drawn) [Example 21, 3-[4-(2-tert-Butyl-5-methyl-oxazol-4-ylmethoxy)-3-methyl-phenyl]-2-ethoxy-propionic acid]	95 to 97
Cc1oc(C(C)C)nc1CCCOc1ccc(CC(OC(C)C)C(=O)O)c2sccc12 (racemic) [Example 62, [rac]-2-Isopropoxy-3-{4-[3-(2-isopropyl-5-methyl-oxazol-4-yl)-propoxy]-benzo[b]thiophen-7-yl}-propionic acid]	125 to 126
Cc1oc(C(C)(C)C)nc1COc1ccc(CC(OC(C)C)C(=O)O)c2sccc12 (stereo not drawn) [Example 23, 3-[4-(2-tert-Butyl-5-methyl-oxazol-4-ylmethoxy)-benzo[b]thiophen-7-yl]-2-isopropoxy-propionic acid]	166 to 167
COC(Cc1ccc(OCCc2nc(C(C)(C)C)oc2C)c2ccccc12)C(=O)O (stereo not drawn) [Example 13, 3-{4-[2-(2-tert-Butyl-5-methyl-oxazol-4-yl)-ethoxy]-naphthalen-1-yl}-2-methoxy-propionic acid]	141 to 143

From patent US7109225B2, “Substituted oxazole derivatives” (Hofmann-la Roche Inc., priority 2002, dated 2006)
